The text below walks through data of patent US20160158200A1, “Combinations of Hepatitis C Virus Inhibitors” (priority 2013, published 2016).

Assay [1] deals with HCV genotype 1a L31V variant with leucine 31 changed to valine in the NS5A protein. As to the kind of experiment: microbe, parasite or virus in culture. The class given is cell-based. Particulars: genotype 1a L31V replicon; test compound titrated with compound N47 fixed at 200 nM versus singly. A general note: In antiviral work, replicon cells carry a viral genome segment that copies itself.

Assay [2] concerns HCV genotype 1a Y93H variant with tyrosine 93 changed to histidine in the NS5A protein. As to the kind of experiment: microbe, parasite or virus in culture. The following applies: genotype 1a Y93H replicon; test compound titrated with compound N47 fixed at 200 nM versus singly. The assay is classed as cell-based. The method in brief: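 In an HCV genotype 1a replicon cell-based assay carrying the NS5A Y93H substitution, BMS-790052 was tested alone and in combination with a fixed amount of a second test compound. The combinations were examined for synergistic activity.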

Regarding `O=C(Nc1ccc(/C=C/c2ccc(NC(=O)[C@@H]3CCCN3C(=O)Cc3ccccc3)cc2)cc1)[C@@H]1CCCN1C(=O)Cc1ccccc1`, in assay [1], the “Fold-Synergistic G-1a (L31V)” value is reported as less than 10 fold. Further, in assay [2], the “Fold-Synergistic G-1a (Y93H)” value is less than 10 fold.

For `O=C(Nc1ccc(-c2ccc(NC(=O)[C@@H]3CCCN3C(=O)Cc3ccccc3)cc2)cc1)[C@@H]1CCCN1C(=O)Cc1ccccc1`, the “Fold-Synergistic G-1a (L31V)” value in assay [1] is on record as less than 10 fold. In addition, the “Fold-Synergistic G-1a (Y93H)” value in assay [2] is less than 10 fold.

`C[C@H](NC(=O)[C@@H](O)c1ccccc1)C(=O)Nc1ccc(-c2cnc(-c3ccc(NC(=O)[C@H](C)NC(=O)[C@@H](O)c4ccccc4)cc3)o2)cc1`: the “Fold-Synergistic G-1a (L31V)” value in assay [1] was less than 10 fold. For the same compound, in assay [2], the “Fold-Synergistic G-1a (Y93H)” value is listed as less than 10 fold.

As for `O=C1C(c2ccccc2)N(c2ccc(-c3cnc(-c4ccc(N5C(=O)C6CCCN6C(=O)C5c5ccccc5)cc4)o3)cc2)C(=O)C2CCCN12` (stereo not drawn), in assay [1], the “Fold-Synergistic G-1a (L31V)” value is given as less than 10 fold. Besides, in assay [2], the “Fold-Synergistic G-1a (Y93H)” value was less than 10 fold.

`O=C(Nc1ccc(C#Cc2ccc(NC(=O)[C@@H]3CCCN3C(=O)Cc3ccccc3)cn2)nc1)[C@@H]1CCCN1C(=O)Cc1ccccc1`: the “Fold-Synergistic G-1a (L31V)” value in assay [1] is less than 10 fold. Further, the “Fold-Synergistic G-1a (Y93H)” value in assay [2] is given as less than 10 fold.

Regarding `C[C@](O)(C(=O)N1CCC[C@H]1c1nc2ccc(-c3ccc(-c4ccc5nc([C@@H]6CCCN6C(=O)[C@](C)(O)c6ccccc6)[nH]c5c4)o3)cc2[nH]1)c1ccccc1`, in assay [1], the “Fold-Synergistic G-1a (L31V)” value is reported as less than 10 fold. Besides, the “Fold-Synergistic G-1a (Y93H)” value in assay [2] is less than 10 fold.

In the case of `CN1CCN(C(C(=O)N2CCC[C@H]2C(=O)Nc2ccc(C#Cc3ccc(NC(=O)[C@@H]4CCCN4C(=O)C(c4ccccc4)N4CCN(C)CC4)cc3)cc2)c2ccccc2)CC1` (stereo partly drawn), the “Fold-Synergistic G-1a (L31V)” value in assay [1] is less than 10 fold. Also, the “Fold-Synergistic G-1a (Y93H)” value in assay [2] is listed as less than 10 fold.

`CN1CCN(C(C(=O)N2CCC[C@H]2C(=O)Nc2ccc(-c3cnc(-c4ccc(NC(=O)[C@@H]5CCCN5C(=O)C(c5ccccc5)N5CCN(C)CC5)cc4)o3)cc2)c2ccccc2)CC1` (stereo partly drawn): the “Fold-Synergistic G-1a (L31V)” value in assay [1] is less than 10 fold. Further, the “Fold-Synergistic G-1a (Y93H)” value in assay [2] is less than 10 fold.

As to `COc1cccc2c(C(=O)N3CCC[C@H]3C(=O)Nc3ccc(-c4ncc(-c5ccc6nc([C@@H]7CCCN7C(=O)c7nc(Cl)cc8c(OC)cccc78)[nH]c6c5)o4)cc3)nc(Cl)cc12`, the “Fold-Synergistic G-1a (L31V)” value in assay [1] is less than 10 fold. Also, in assay [2], the “Fold-Synergistic G-1a (Y93H)” value is less than 10 fold.

Take `CN(C)[C@@H](C(=O)N1CCC[C@H]1C(=O)Nc1cccc(-c2ncc(-c3ccc4nc([C@@H]5CCCN5C(=O)[C@@H](c5ccccc5)N(C)C)[nH]c4c3)o2)c1)c1ccccc1`: the “Fold-Synergistic G-1a (L31V)” value in assay [1] is less than 10 fold. In addition, the “Fold-Synergistic G-1a (Y93H)” value in assay [2] was less than 10 fold.

In the case of `O=C(Cc1ccccc1)N1CCC[C@H]1c1nc2ccc(-c3cnc([C@@H]4CCCN4C(=O)Cc4ccccc4)o3)cc2[nH]1`, in assay [1], the “Fold-Synergistic G-1a (L31V)” value was less than 10 fold. Further, the “Fold-Synergistic G-1a (Y93H)” value in assay [2] was less than 10 fold.

Consider `CN(C)[C@@H](C(=O)Nc1cccc(-c2ncc(-c3ccc4nc([C@@H]5CCCN5C(=O)[C@@H](c5ccccc5)N(C)C)[nH]c4c3)o2)c1)c1ccccc1`, for which the “Fold-Synergistic G-1a (L31V)” value in assay [1] is reported as less than 10 fold. For the same compound, in assay [2], the “Fold-Synergistic G-1a (Y93H)” value was less than 10 fold.

Regarding `CN(C)[C@@H](C(=O)N1CCC[C@H]1c1nc2ccc(-c3ncc([C@@H]4CCCN4C(=O)[C@@H](c4ccccc4)N(C)C)o3)cc2[nH]1)c1ccccc1`, in assay [1], the “Fold-Synergistic G-1a (L31V)” value is given as less than 10 fold. For the same compound, the “Fold-Synergistic G-1a (Y93H)” value in assay [2] is listed as less than 10 fold.

On to `CN(C)C(C(=O)N1CCC[C@H]1c1nc(-c2ccc3nc([C@@H]4CCCN4C(=O)C(c4ccccc4)N(C)C)[nH]c3c2)c[nH]1)c1ccccc1` (stereo partly drawn), for which the “Fold-Synergistic G-1a (L31V)” value in assay [1] is less than 10 fold. In addition, in assay [2], the “Fold-Synergistic G-1a (Y93H)” value is less than 10 fold.

As for `Cc1nc2cccc(-c3ncc(-c4ccc5nc([C@@H]6CCCN6C(=O)[C@@H](c6ccccc6)N(C)C)[nH]c5c4)o3)c2[nH]1`, the “Fold-Synergistic G-1a (L31V)” value in assay [1] is recorded as less than 10 fold. Moreover, the “Fold-Synergistic G-1a (Y93H)” value in assay [2] is listed as less than 10 fold.

With `COc1cccc2c(C(=O)N3CCC[C@H]3c3nc4ccc(-c5cnc(-c6cccc(O)c6)o5)cc4[nH]3)nc(Cl)cc12`, the “Fold-Synergistic G-1a (L31V)” value in assay [1] is less than 10 fold. In assay [2], the “Fold-Synergistic G-1a (Y93H)” value is on record as less than 10 fold.

On to `Cc1nc2ccc(-c3cnc(-c4ccc5nc([C@@H]6CCCN6C(=O)[C@@H](c6ccccc6)N(C)C)[nH]c5c4)o3)cc2[nH]1`, for which the “Fold-Synergistic G-1a (L31V)” value in assay [1] is reported as less than 10 fold. In addition, in assay [2], the “Fold-Synergistic G-1a (Y93H)” value is given as less than 10 fold.

Regarding `COC(=O)N[C@@H](C(=O)N1CCC[C@H]1c1nc2ccc(C(=O)c3ccc4nc([C@@H]5CCCN5C(=O)[C@H](NC(=O)OC)c5ccccc5)[nH]c4c3)cc2[nH]1)c1ccccc1`, the “Fold-Synergistic G-1a (L31V)” value in assay [1] is less than 10 fold. Moreover, the “Fold-Synergistic G-1a (Y93H)” value in assay [2] is given as less than 10 fold.

With `COC(=O)N[C@@H](C(=O)N1CCC[C@H]1c1nc2ccc(-c3ncc(-c4ccc(N5CCOCC5)cc4)o3)cc2[nH]1)c1ccccc1`, the “Fold-Synergistic G-1a (L31V)” value in assay [1] is less than 10 fold. Moreover, the “Fold-Synergistic G-1a (Y93H)” value in assay [2] is listed as less than 10 fold.

For the compound `COC(=O)N[C@@H](C(=O)N1CCC[C@H]1c1ncc(-c2ccc(-c3ccc(-c4cnc([C@@H]5CCCN5C(=O)[C@H](NC(=O)OC)c5ccccc5)[nH]4)cc3)cc2)[nH]1)c1ccccc1`, the “Fold-Synergistic G-1a (L31V)” value in assay [1] is listed as greater than 10 fold. In assay [2], the “Fold-Synergistic G-1a (Y93H)” value is recorded as less than 10 fold.

On to `CN(C)[C@@H](C(=O)N1CCC[C@H]1c1nc2ccc(-c3ccc4nc([C@@H]5CCCN5C(=O)[C@@H](c5ccccc5)N(C)C)[nH]c4c3)cc2[nH]1)c1ccccc1`, for which the “Fold-Synergistic G-1a (L31V)” value in assay [1] is less than 10 fold. Besides, the “Fold-Synergistic G-1a (Y93H)” value in assay [2] was less than 10 fold.

On to `COC(=O)N[C@@H](C(=O)N1CCC[C@H]1c1ncc(-c2ccc(-c3ccc(-c4cnc([C@@H]5CCCN5C(=O)[C@H]5CCCO5)[nH]4)cc3)cc2)[nH]1)c1ccccc1`, for which, in assay [1], the “Fold-Synergistic G-1a (L31V)” value is listed as less than 10 fold. Besides, the “Fold-Synergistic G-1a (Y93H)” value in assay [2] was less than 10 fold.

As to `COC(=O)N[C@@H](C(=O)N1CCC[C@H]1c1nc(-c2ccc(Oc3ccc(-c4c[nH]c([C@@H]5CCCN5C(=O)[C@H](NC(=O)OC)c5ccccc5)n4)cc3)cc2)c[nH]1)c1ccccc1`, the “Fold-Synergistic G-1a (L31V)” value in assay [1] is on record as less than 10 fold. For the same compound, the “Fold-Synergistic G-1a (Y93H)” value in assay [2] was less than 10 fold.

As to `COC(=O)N[C@@H](C(=O)N1CCC[C@H]1c1nc(-c2ccc(Oc3cccc(-c4cnc([C@@H]5CCCN5C(=O)[C@H](NC(=O)OC)c5ccccc5)[nH]4)c3)cc2)c[nH]1)c1ccccc1`, the “Fold-Synergistic G-1a (L31V)” value in assay [1] is listed as less than 10 fold. For the same compound, the “Fold-Synergistic G-1a (Y93H)” value in assay [2] is listed as less than 10 fold.

As for `CN(C)[C@@H](C(=O)N1CCC[C@H]1c1nc(-c2ccc(COCc3ccc(-c4c[nH]c([C@@H]5CCCN5C(=O)[C@@H](c5ccccc5)N(C)C)n4)cc3)cc2)c[nH]1)c1ccccc1`, in assay [1], the “Fold-Synergistic G-1a (L31V)” value was less than 10 fold. For the same compound, the “Fold-Synergistic G-1a (Y93H)” value in assay [2] was less than 10 fold.

Take `CN(C)[C@@H](C(=O)N1CCC[C@H]1c1nc(-c2ccc(COc3ccc(-c4c[nH]c([C@@H]5CCCN5C(=O)[C@@H](c5ccccc5)N(C)C)n4)cc3)cc2)c[nH]1)c1ccccc1`: the “Fold-Synergistic G-1a (L31V)” value in assay [1] is listed as less than 10 fold. Further, the “Fold-Synergistic G-1a (Y93H)” value in assay [2] was less than 10 fold.

As for `COC(=O)N[C@@H](C(=O)N1CCC[C@H]1c1nc(-c2ccc(CCc3ccc(-c4c[nH]c([C@@H]5CCCN5C(=O)[C@H](NC(=O)OC)c5ccccc5)n4)cc3)cc2)c[nH]1)c1ccccc1`, in assay [1], the “Fold-Synergistic G-1a (L31V)” value is less than 10 fold. Further, in assay [2], the “Fold-Synergistic G-1a (Y93H)” value is less than 10 fold.
